Data on 29 compounds can be found in patent US10106535B2, “Histone deacetylase inhibitors and compositions and methods of use thereof” (CHDI Foundation, Inc., priority 2013, dated 2018).

Each structure is given as a SMILES string.

In this experiment the test system is cellular histone deacetylase enzymatic activity in Jurkat E6-1 cells. The experiment in a line: Inhibition of cellular HDAC activity in Jurkat E6-1 cells, fluorogenic substrate Boc-Lys(Tfa)-AMC. The class given is cell-based. Conditions: Homo sapiens, read-out: Cell IC50. The source says:
Example 50: Analysis of Inhibition of Cellular HDAC Activity with Class IIa Histone Deacetylase (HDAC) Inhibitors
The potency of Class IIa Histone Deacetylase (HDAC) inhibitors is quantified by measuring the cellular histone deacetylase enzymatic activity using the fluorogenic substrate, Boc-Lys(Tfa)-AMC. After penetration in Jurkat E6-1 cells, the substrate is deacetylated to Boc-Lys-AMC. After cell lysis and cleavage by trypsin, the fluorophore AMC is released from the deacetylated substrate only. The fluorescence of the sample is directly related to the histone deacetylase activity in the sample.
Jurkat E6.1 cells are cultured according to standard cell culture protocols in Jurkat E6.1 Growth Media (RPMI without phenol red, 10% FBS, 10 mM HEPES, and 1 mM Sodium Pyruvate). Jurkat E6.1 cells are counted using a Coulter Counter and resuspended in Jurkat E6.1 growth media at a concentration of 75,000 cells/35 μl. 35 μl or 75,000 cells is seeded into Greiner microtitre assay plates. The plates are then incubated at 37° C. and 5% CO2 while other assay components are being prepared.
Serial dilutions of the HDAC inhibitors and control reference compound (1-(5-(3-((4-(1,3,4-oxadiazol-2-yl)phenoxy)methyl)-1,2,4-oxadiazol-5-yl)thiophen-2-yl)-2,2,2-trifluoroethanone) are made by first resuspending the lyophilized compound to a final concentration of 10 mM in 100% DMSO. Stocks of 70 μl aliquots of the 10 mM compound in DMSO are prepared and stored at −20° C. From one stock aliquot of each compound to be tested and the reference compound, a 16-point serial dilution is prepared according to Table 1 using a 125 μl 16-channel Matrix multi-channel pipette.
2 μl (200×) of each diluted solution and each control (full activity: 100% DMSO alone or full inhibition 1 mM) is stamped into V-bottom polypropylene 384-well compound plates using either the Bravo, Janus, or 12.5 μl 16-channel Matrix multi-channel pipette. Each well with the 200× compound solution is diluted 1:20 by the addition of 38 μl Jurkat assay buffer+DMSO (9.5% DMSO, RPMI without phenol red, 0.09% FBS, 9 mM Hepes, and 0.9 mM Sodium Pyruvate equilibrated to room temperature)
5× (500 μM) substrate is prepared just prior to the addition to the assay. The 5× substrate is prepared by diluting a 100 mM Boc-Lys(Tfa)-AMC in DMSO solution 1:200 by adding it drop-wise to Jurkat assay medium (RPMI without phenol red, 0.1% FBS, 10 mM Hepes, and 1 mM Sodium Pyruvate equilibrated to 37° C.) while vortexing at slow speed to prevent precipitation.
10 ml of 3× lysis buffer is prepared with 8.8 ml of 3× stock lysis buffer (50 mM Tris-HCl, pH 8.0, 137 mM NaCl, 2.7 mM KCl, 1 mM MgCl2, 1% Nonidet P40 Substitute equilibrated to room temperature) and 1.2 ml of 3 mg/ml Trypsin equilibrated to room temperature.
5 μl of each solution of 1:20 diluted compound from above is transferred to the Greiner microtitre assay plates with 75,000 cells/well using the Bravo. Cells are then incubated for 2 hours at 37° C. and 5% CO2. The assay is then started by adding 10 μl of 5× (500 μM) substrate to the assay plate using either the Bravo or 16-channel Matrix multi-channel pipette. The cells are then incubated for 3 hours at 37° C. and 5% CO2. Next, 25 μl of 3× lysis buffer is added to each well using either the 125 μl 16 channel pipette or the Bravo. The assay plate is then incubated overnight (15-16 hours) at 37° C. and 5% CO2. The following day, the plates are shaken on an orbital shaker for 1 minute at 900 rpm. Finally the top read fluorescence (Excitation: 355 nm, Emission: 460 nm) is measured using PerkinElmer EnVision.

Consider `Cc1c(F)cccc1[C@@]1(C(=O)NO)C=C(c2ccccc2)CC1` [Example 2, (S)-1-(3-fluoro-2-methylphenyl)-N-hydroxy-3-phenylcyclopent-2-enecarboxamide], for which the IC50 (usually the concentration that gives 50% inhibition) was found to be 170 nM.

For the compound `Cc1c(F)cccc1[C@@]1(C(=O)NO)C=C(c2cnc(C3CC3)nc2)CC1` [Example 24, (S)-3-(2-cyclopropylpyrimidin-5-yl)-1-(3-fluoro-2-methylphenyl)-N-hydroxycyclopent-2-enecarboxamide], the IC50 stood at 80 nM.

`Cc1c(F)cccc1[C@@]1(C(=O)NO)C=C(c2ccc3onc(C)c3c2)CC1` [Example 22, (S)-1-(3-fluoro-2-methylphenyl)-N-hydroxy-3-(3-methylbenzo[d]isoxazol-5-yl)cyclopent-2-enecarboxamide]: the IC50 is 60 nM.

On to `Cc1c(F)cccc1[C@@]1(C(=O)NO)C=C(c2cnccn2)CC1` [Example 8, (S)-1-(3-fluoro-2-methylphenyl)-N-hydroxy-3-(pyrazin-2-yl)cyclopent-2-ene carboxamide], for which the IC50 came out at 15700 nM.

With `Cc1c(F)cccc1[C@@]1(C(=O)NO)C=C(c2cc3ccccc3s2)CC1` [Example 41, (S)-3-(benzo[b]thiophen-2-yl)-1-(3-fluoro-2-methylphenyl)-N-hydroxycyclopent-2-enecarboxamide], the IC50 is 40 nM.

`Cc1c(F)cccc1[C@@]1(C(=O)NO)C=C(c2cccc3cnsc23)CC1` [Example 29, (S)-3-(benzo[d]isothiazol-7-yl)-1-(3-fluoro-2-methylphenyl)-N-hydroxycyclopent-2-enecarboxamide]: the IC50 is 200 nM.

Regarding `O=C(NO)[C@]1(c2ccccc2)C=C(c2ccccc2)CC1` [Example 33, (S)-N-hydroxy-1,3-diphenylcyclopent-2-enecarboxamide], the IC50 stood at 2500 nM.

For `Cc1ccccc1C1=C[C@@](C(=O)NO)(c2cccc(F)c2C)CC1` [Example 3, (R)-1-(3-fluoro-2-methyl-phenyl)-N-hydroxy-3-(o-tolyl)cyclopent-2-ene-1-carboxamide], the IC50 was determined as 4600 nM.

`Cc1c(F)cccc1[C@@]1(C(=O)NO)C=C(c2ccnn2C)CC1` [Example 27, (S)-1-(3-fluoro-2-methylphenyl)-N-hydroxy-3-(1-methyl-1H-pyrazol-5-yl)cyclopent-2-enecarboxamide]: the concentration for half-maximal inhibition (IC50) was found to be 330 nM.

Regarding `Cc1ncc(C2=C[C@](C(=O)NO)(c3cccc(F)c3C)CC2)cc1Cl` [Example 26, (S)-3-(5-chloro-6-methylpyridin-3-yl)-1-(3-fluoro-2-methylphenyl)-N-hydroxycyclopent-2-enecarboxamide], the IC50 turned out to be 80 nM.

Regarding `O=C(NO)[C@]1(c2ccccc2)C=C(c2cncc(F)c2)CC1` [Example 35, (S)-3-(5-fluoropyridin-3-yl)-N-hydroxy-1-phenylcyclopent-2-enecarboxamide], the IC50 was 3100 nM.

As to `Cc1c(F)cccc1[C@@]1(C(=O)NO)C=C(c2ccc3nccnc3c2)CC1` [Example 12, (S)-1-(3-fluoro-2-methylphenyl)-N-hydroxy-3-(quinoxalin-6-yl)cyclopent-2-enecarboxamide], the IC50 came out at 20 nM.

For `Cc1c(F)cccc1[C@@]1(C(=O)NO)C=C(c2cc(F)cnc2C2CC2)CC1` [Example 19, (S)-3-(2-cyclopropyl-5-fluoropyridin-3-yl)-1-(3-fluoro-2-methylphenyl)-N-hydroxycyclopent-2-enecarboxamide], the IC50 was determined as 500 nM.

Turning to `Cc1c(F)cccc1[C@]1(C(=O)NO)C=C(c2ccccc2)CC1` [Example 1, (R)-1-(3-fluoro-2-methylphenyl)-N-hydroxy-3-phenylcyclopent-2-enecarboxamide], the IC50 is more than 50000 nM.

`Cc1c(F)cccc1[C@@]1(C(=O)NO)C=C(c2ccnc(C(F)(F)F)c2)CC1` [Example 13, (S)-1-(3-fluoro-2-methylphenyl)-N-hydroxy-3-(2-(trifluoromethyl)pyridin-4-yl)cyclopent-2-enecarboxamide]: the IC50 was found to be 270 nM.

In the case of `Cc1c(F)cccc1[C@]1(C(=O)NO)C=C(c2cnccn2)CC1` [Example 7, (R)-1-(3-fluoro-2-methylphenyl)-N-hydroxy-3-(pyrazin-2-yl)cyclopent-2-ene carboxamide], the IC50 was more than 50000 nM.

Regarding `Cc1c(F)cccc1[C@@]1(C(=O)NO)C=C(c2ccc3cnn(C)c3c2)CC1` [Example 38, (S)-1-(3-fluoro-2-methylphenyl)-N-hydroxy-3-(1-methyl-1H-indazol-6-yl)cyclopent-2-enecarboxamide], the IC50 worked out at 10 nM.

Turning to `COc1ncc(C2=C[C@](C(=O)NO)(c3cccc(F)c3C)CC2)cc1F` [Example 23, (S)-1-(3-fluoro-2-methylphenyl)-3-(5-fluoro-6-methoxypyridin-3-yl)-N-hydroxycyclopent-2-enecarboxamide], the IC50 worked out at 220 nM.

Take `Cc1c(F)cccc1[C@@]1(C(=O)NO)C=C(c2cncc(Cl)c2)CC1` [Example 11, (S)-3-(5-chloropyridin-3-yl)-1-(3-fluoro-2-methylphenyl)-N-hydroxycyclopent-2-enecarboxamide]: the IC50 came to 120 nM.

As for `O=C(NO)C1(c2ccccc2F)CC=CC1` [Example 31, 1-(2-fluorophenyl)-N-hydroxy-cyclopent-3-enecarboxamide], the IC50 stood at 44500 nM.

Turning to `Cc1ncccc1C1=C[C@](C(=O)NO)(c2cccc(F)c2C)CC1` [Example 37, (S)-1-(3-fluoro-2-methylphenyl)-N-hydroxy-3-(2-methylpyridin-3-yl)cyclopent-2-enecarboxamide], the IC50 was 90 nM.

On to `O=C(NO)[C@@]1(c2ccccc2)C=C(c2ccccc2)CC1` [Example 34, (R)-N-hydroxy-1,3-diphenylcyclopent-2-enecarboxamide], for which the IC50 is more than 50000 nM.

As for `Cc1c(F)cccc1[C@@]1(C(=O)NO)C=C(c2ccn3ccnc3c2)CC1` [Example 21, (S)-1-(3-fluoro-2-methylphenyl)-N-hydroxy-3-(imidazo[1,2-a]pyridin-7-yl)cyclopent-2-enecarboxamide], the IC50 worked out at 60 nM.

With `Cc1c(F)cccc1[C@@]1(C(=O)NO)C=C(c2cncc(C(F)(F)F)c2)CC1` [Example 17, (S)-1-(3-fluoro-2-methylphenyl)-N-hydroxy-3-(5-(trifluoromethyl)pyridin-3-yl)cyclopent-2-enecarboxamide], the IC50 came out at 200 nM.

As to `Cc1c(F)cccc1[C@]1(C(=O)NO)C=C(c2cncc(F)c2)CC1` [Example 5, (R)-1-(3-fluoro-2-methylphenyl)-3-(5-fluoropyridin-3-yl)-N-hydroxycyclopent-2-enecarboxamide], the IC50 turned out to be 6800 nM.

Consider `Cc1c(F)cccc1C1(C(=O)NO)CC=C(c2cncc(F)c2)CC1` (centres unmarked) [Example 44, 3′-fluoro-4-(5-fluoropyridin-3-yl)-N-hydroxy-2′-methyl-1,2,3,6-tetrahydro-[1,1′-biphenyl]-1-carboxamide], for which the IC50 turned out to be 670 nM.

As for `Cc1c(F)cccc1[C@@]1(C(=O)NO)C=C(c2ccc(F)cn2)CC1` [Example 15, (S)-1-(3-fluoro-2-methylphenyl)-3-(5-fluoropyridin-2-yl)-N-hydroxycyclopent-2-enecarboxamide], the IC50 came to 310 nM.

As for `Cc1c(F)cccc1[C@@]1(C(=O)NO)C=C(c2cnn(C(F)F)c2)CC1` [Example 18, (S)-3-(1-(difluoromethyl)-1H-pyrazol-4-yl)-1-(3-fluoro-2-methylphenyl)-N-hydroxycyclopent-2-enecarboxamide], the IC50 amounted to 160 nM.

`Cc1ccccc1C1=C[C@](C(=O)NO)(c2cccc(F)c2C)CC1` [Example 4, (S)-1-(3-fluoro-2-methyl-phenyl)-N-hydroxy-3-(o-tolyl)cyclopent-2-ene-1-carboxamide]: the IC50 stood at 360 nM.
